This is an account of results in ChEMBL document CHEMBL1777735, “Lipophilicity of acidic compounds: impact of ion pair partitioning on drug design” (Bioorg Med Chem Lett, 2011).

A short description of data set [1]: 1-Octanol-water distribution coefficient, log D of the compound at pH 7.4 by shake-flask method. The class given is physicochemical.
The nature of data set [2]: 1-Octanol-sodium citrate buffer distribution coefficient, log D of the compound at pH 5.5 by shake-flask method. The class given is physicochemical.
Data set [3] is described as follows: Plasma protein binding in human. The data set is classed as ADME, cell-free. To be noted: read-out: PPB (converted).
Data set [4] is described as follows: Lipophilicity, log P of the compound. The class given is physicochemical. To be noted: octanol/water.
The mark [5] stands for this setting: 1-octanol/sodium citrate buffer, read-out: logD.

In the case of `Cc1ccc(S(=O)(=O)NC(=O)NN2CCCCCC2)cc1` [TOLAZAMIDE], the results for the logD in data set [1] and in data set [2] (setting [5]) were 0 and 1.2, respectively. In data set [3], the fraction unbound was 0.06.

Regarding `CCCCC1=NC2(CCCC2)C(=O)N1Cc1ccc(-c2ccccc2-c2nnn[nH]2)cc1` [IRBESARTAN], the values for the log distribution coefficient (logD) in data set [1] and in data set [2] (setting [5]) were 0.9 and 2.4, respectively. In addition, in data set [3], the fraction unbound was 0.02.

`CN(C)S(=O)(=O)NC(=O)CCCc1c(-c2ccc(F)cc2)[nH]c2ccc(C#N)cc12` gave a log partition coefficient (logP) in data set [4] of 2.6. In addition, the values for the logD in data set [1] and in data set [2] (octanol/water) were 2.8 and 3.7, respectively. The fraction unbound in data set [3] was 0.004.

Consider `O=C(c1ccccc1)c1ccc2n1CCC2C(=O)O` (stereo unspecified) [KETOROLAC], for which the logP in data set [4] (read-out: logP) is 2.7. Also, the log distribution coefficient (logD) in data set [1] was -1; in data set [2] (setting [5]) it was 0.6. Further, in data set [3], the fraction unbound is 0.008.

Turning to `CCCCNc1cc(C(=O)O)cc(S(N)(=O)=O)c1Oc1ccccc1` [BUMETANIDE], the pH-dependent lipophilicity (logD) in data set [1] was -0.6; in data set [2] (setting [5]), 1.1. Moreover, the fraction unbound in data set [3] is 0.016.

With `CCc1cccc2c3c([nH]c12)C(CC)(CC(=O)O)OCC3` (stereo unspecified) [ETODOLAC], the fraction unbound in data set [3] was 0.009.

In the case of `COc1ccc(Cl)cc1C(=O)NCCc1ccc(S(=O)(=O)NC(=O)NC2CCCCC2)cc1` [GLYBURIDE], the results for the pH-dependent lipophilicity (logD) in data set [1] and in data set [2] (setting [5]) were 2.2 and 3.5, respectively. The fraction unbound in data set [3] is 0.002.

As for `CC(=O)c1ccc(S(=O)(=O)NC(=O)NC2CCCCC2)cc1` [ACETOHEXAMIDE], the lipophilicity (logP) in data set [4] (read-out: logP) is 2.4. The logD was -0.3 in data set [1] and 1.3 in data set [2] (setting [5]). In data set [3], the fraction unbound was 0.25.

`O=C(O)CCn1c2c(c3ccccc31)C[C@H](NS(=O)(=O)c1ccc(F)cc1)CC2` [RAMATROBAN]: the lipophilicity (logP) in data set [4] (read-out: logP) worked out at 3. For the same compound, the log distribution coefficient (logD) turned out to be 0.5 in data set [1] and 2.3 in data set [2] (setting [5]). Moreover, the fraction unbound in data set [3] is 0.025.

In the case of `O=C(O)CCCc1ccc(N(CCCl)CCCl)cc1` [CHLORAMBUCIL], the logD stood at 1.4 in data set [1] and 3.2 in data set [2] (setting [5]). The fraction unbound in data set [3] is 0.01.

In the case of `Cc1ccc(C(=O)c2ccc(CC(=O)O)n2C)cc1` [TOLMETIN], the logP in data set [4] (read-out: logP) is 2.7. In addition, the logD is -1 in data set [1] and 0.8 in data set [2] (setting [5]). The fraction unbound in data set [3] was 0.003.

Turning to `CCCCc1nc(Cl)c(CO)n1Cc1ccc(-c2ccccc2-c2nn[nH]n2)cc1` [LOSARTAN], the logD in data set [1] came out at 0.6; in data set [2] (setting [5]), 2.2. Besides, in data set [3], the fraction unbound is 0.02.

As for `CN1C(C(=O)Nc2ccccn2)=C(O)c2ccccc2S1(=O)=O` [PIROXICAM], the figures for the logD in data set [1] and in data set [2] (setting [5]) were -0.3 and 1.1, respectively. The fraction unbound in data set [3] was 0.007.

As for `Cc1nnc(NS(=O)(=O)c2ccc(N)cc2)s1` [SULFAMETHIZOLE], the pH-dependent lipophilicity (logD) in data set [1] is -1.6; in data set [2] (setting [5]) it was 0. For the same compound, in data set [3], the fraction unbound was 0.065.

Consider `Cc1cc(SCc2sc(-c3ccc(C(F)(F)F)cc3)nc2C)ccc1OCC(=O)O` [GW501516], for which the logD in data set [1] came out at 2.2; in data set [2] (setting [5]), 3.5.

With `CCOc1cc(CC(=O)N[C@@H](CC(C)C)c2ccccc2N2CCCCC2)ccc1C(=O)O` [REPAGLINIDE], the logD in data set [1] came to 2.2; in data set [2] (setting [5]), 3.2. In data set [3], the fraction unbound was 0.009.

Turning to `CCOC(=O)[C@H](CCc1ccccc1)N[C@@H](C)C(=O)N1[C@H](C(=O)O)C[C@@H]2CCC[C@@H]21`, in data set [3], the fraction unbound is 0.105.

For the compound `O=C(O)CCc1nc(-c2ccccc2)c(-c2ccccc2)o1` [OXAPROZIN], the logP in data set [4] (read-out: logP) was found to be 3.1. For the same compound, the log distribution coefficient (logD) in data set [1] worked out at 1; in data set [2] (setting [5]), 2.5. The fraction unbound in data set [3] was less than 0.001.

Turning to `CCOC(=O)[C@H](CCc1ccccc1)N[C@@H](C)C(=O)N1CCC[C@H]1C(=O)O`, the logD in data set [1] was -1.8; in data set [2] (setting [5]) it was -0.5. For the same compound, in data set [3], the fraction unbound was 0.5.

With `COc1ccc2c(c1)c(CC(=O)O)c(C)n2C(=O)c1ccc(Cl)cc1` [INDOMETHACIN], in data set [4] (read-out: logP), the logP is 3.8. In addition, in data set [2] (setting [5]), the logD stood at 2.7.

On to `CCOC(=O)[C@H](CCc1ccccc1)N[C@H]1CCc2ccccc2N(CC(=O)O)C1=O` [BENAZEPRIL], for which the fraction unbound in data set [3] is 0.041.

Usually logD stands for the decadic logarithm of the distribution of all forms, ionised or not, between an organic phase and buffer at a given pH. As usually defined, the logP is the decadic logarithm of the partition coefficient of the neutral form, usually between octanol and water.
